In ChEMBL document CHEMBL1133146, “Potent nonpeptide endothelin antagonists: synthesis and structure-activity relationships of pyrazole-5-carboxylic acids” (Bioorg Med Chem Lett, 2000):

Experiments:
Endothelin-1 receptor = target: T1, Endothelin-1 receptor (Rattus norvegicus, UniProt P26684); test: In vitro binding affinity to endothelin A receptor in rat heart ventricles
T1 sequence (P26684 whole entry): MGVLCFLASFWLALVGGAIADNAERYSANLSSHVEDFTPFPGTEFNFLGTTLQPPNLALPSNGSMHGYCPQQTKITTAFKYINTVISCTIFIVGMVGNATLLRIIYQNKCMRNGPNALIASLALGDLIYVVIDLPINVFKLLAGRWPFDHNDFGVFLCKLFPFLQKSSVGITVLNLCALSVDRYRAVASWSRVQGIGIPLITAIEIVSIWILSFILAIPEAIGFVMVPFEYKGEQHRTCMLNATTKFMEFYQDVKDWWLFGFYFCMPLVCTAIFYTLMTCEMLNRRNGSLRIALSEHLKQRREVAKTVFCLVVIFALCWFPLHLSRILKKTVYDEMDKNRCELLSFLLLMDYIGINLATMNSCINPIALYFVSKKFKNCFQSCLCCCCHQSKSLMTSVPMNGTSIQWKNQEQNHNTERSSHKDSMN

[1] = target: T2, Endothelin receptor type B (Rattus norvegicus, UniProt P21451); test: In vitro binding affinity to endothelin B receptor in rat cerebellum; format: tissue-based
T2 sequence (P21451 whole entry): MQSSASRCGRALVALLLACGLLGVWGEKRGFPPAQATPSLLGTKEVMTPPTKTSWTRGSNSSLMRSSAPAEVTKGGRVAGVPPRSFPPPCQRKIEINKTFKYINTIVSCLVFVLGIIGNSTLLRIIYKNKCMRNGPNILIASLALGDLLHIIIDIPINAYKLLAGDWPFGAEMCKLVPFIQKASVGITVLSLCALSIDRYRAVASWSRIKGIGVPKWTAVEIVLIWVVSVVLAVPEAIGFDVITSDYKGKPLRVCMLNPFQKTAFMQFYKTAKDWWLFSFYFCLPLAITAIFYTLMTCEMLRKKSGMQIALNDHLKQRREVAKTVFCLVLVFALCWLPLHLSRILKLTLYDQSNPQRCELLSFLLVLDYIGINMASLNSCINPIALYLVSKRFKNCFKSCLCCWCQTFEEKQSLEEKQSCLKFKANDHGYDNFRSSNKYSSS

[2] = system: Endothelin receptor ET-A/ET-B (Rattus norvegicus); test: Ratio of ETA / ETB was determined; 1/7
[3] = system: Endothelin receptor ET-A/ET-B (Rattus norvegicus); test: Ratio of ETA / ETB was determined; 22/1

| Structure (SMILES) | IC50 (Endothelin-1 receptor) | IC50 [1] | Ratio [2] | Ratio [3] |
| --- | --- | --- | --- | --- |
| O=C(O)c1c(Cc2cc3c(cc2Cl)OCO3)c(-c2ccccc2)nn1Cc1ccc(Cl)c(Cl)c1 | 34 nM | 26 nM | – | – |
| O=C(O)c1c(Cc2cc3c(cc2Cl)OCO3)c(-c2cccs2)nn1CC1CCC(C(=O)O)CC1 (stereo not drawn) | 0.81 nM | 825 nM | – | – |
| O=C(O)c1c(Cc2cc3c(cc2Cl)OCO3)c(-c2cccnc2)nn1CC1CCCCC1 | 17.8 nM | 6.3 nM | – | – |
| O=C(O)c1c(Cc2cc3c(cc2Cl)OCO3)c(-c2ccccc2)nn1Cc1cccc(Cl)c1 | 17 nM | 11 nM | – | – |
| O=C(O)c1c(Cc2cc3c(cc2Cl)OCO3)c(-c2ccccn2)nn1CC1CCCCC1 | 4.7 nM | 3.4 nM | – | – |
| O=C(O)c1c(Cc2cc3c(cc2Cl)OCO3)c(-c2cccs2)nn1CC1CCCC(C(=O)O)C1 (stereo not drawn) | 1.3 nM | 9.9 nM | 7 | – |
| CCC(CC)Cn1nc(-c2ccccc2)c(Cc2cc3c(cc2Cl)OCO3)c1C(=O)O | 15 nM | 31 nM | – | – |
| O=C(O)c1c(Cc2cc3c(cc2Cl)OCO3)c(-c2ccccc2)nn1CC1OCCO1 | 70 nM | 953 nM | – | – |
| O=C(O)COC1CCCCC1Cn1nc(-c2ccccc2)c(Cc2cc3c(cc2Cl)OCO3)c1C(=O)O (stereo not drawn) | 20.5 nM | 3.2 nM | – | – |
| COc1ccc(Cn2nc(-c3cccs3)c(Cc3cc4c(cc3Cl)OCO4)c2C(=O)O)c(OCC(=O)O)c1 | 14.9 nM | 8.6 nM | – | – |
| O=C(O)c1c(Cc2cc3c(cc2Cl)OCO3)c(-c2ccccc2)nn1CC12CC3CC(CC(C3)C1)C2 | 3.4 nM | 4.9 nM | – | – |
| O=C(O)c1c(Cc2cc3c(cc2Cl)OCO3)c(-c2ccccc2)nn1CC1CCCCC1 | 3.6 nM | 2.6 nM | – | – |
| O=C(O)COc1ccccc1Cn1nc(-c2ccccc2)c(Cc2cc3c(cc2Cl)OCO3)c1C(=O)O | 59 nM | 3.3 nM | – | – |
| O=C(O)c1cc(Cn2nc(-c3ccccc3)c(Cc3cc4c(cc3Cl)OCO4)c2C(=O)O)on1 | 79 nM | 440 nM | – | – |
| COc1ccc(Cn2nc(-c3ccccc3)c(Cc3cc4c(cc3Cl)OCO4)c2C(=O)O)c(OCC(=O)O)c1 | 89 nM | 4 nM | – | 22 |
| O=C(O)c1c(Cc2cc3c(cc2Cl)OCO3)c(-c2ccsc2)nn1CC1CCCCC1 | 1.1 nM | 3.2 nM | – | – |
| O=C(O)c1c(Cc2cc3c(cc2Cl)OCO3)c(-c2ccccc2)nn1CC1CCCC(C(=O)O)C1 (stereo not drawn) | 2.5 nM | 14.8 nM | – | – |
| COc1cc(Cn2nc(-c3ccccc3)c(Cc3cc4c(cc3Cl)OCO4)c2C(=O)O)cc(OC)c1 | 28 nM | 9.7 nM | – | – |
| O=C(O)c1c(Cc2cc3c(cc2Cl)OCO3)c(-c2cccs2)nn1CC1CCCCC1 | 1.1 nM | 1.7 nM | – | – |
| O=C(O)c1c(Cc2cc3c(cc2Cl)OCO3)c(-c2ccco2)nn1CC1CCCCC1 | 1.3 nM | 9.8 nM | – | – |
| O=C(O)c1c(Cc2cc3c(cc2Cl)OCO3)c(-c2ccccc2)nn1C1CCCCC1 | 226 nM | 131 nM | – | – |
| O=C(O)COc1ccccc1Cn1nc(-c2cccs2)c(Cc2cc3c(cc2Cl)OCO3)c1C(=O)O | 28.3 nM | 4.6 nM | – | – |
| COc1ccc(-c2nn(CC3CCCCC3)c(C(=O)O)c2Cc2cc3c(cc2Cl)OCO3)cc1 | – | 178 nM | – | – |
| O=C(O)c1ccc(Cn2nc(-c3ccccc3)c(Cc3cc4c(cc3Cl)OCO4)c2C(=O)O)cc1 | 11 nM | 2040 nM | – | – |
| O=C(O)c1c(Cc2cc3c(cc2Cl)OCO3)c(-c2ccccc2)nn1CC1CCC(C(=O)O)CC1 (stereo not drawn) | 4.9 nM | 810 nM | – | – |
| O=C(O)c1cc2c(c(Cn3nc(-c4ccccc4)c(Cc4cc5c(cc4Cl)OCO5)c3C(=O)O)c1)OCOC2 | 2.5 nM | 44 nM | – | – |
